Assay results published in patent US20210267948A1, “TREATMENT OF CANCER” (CITY OF HOPE, priority 2017, published 2021).

How the values were obtained:
[1] = test system: wild-type zebrafish embryos; assay: Zebrafish genotoxicity assay; type: in vivo, Danio rerio; details: HU 0-50 mM
Method: The PARP1 activity was determined using the PARP1 Chemiluminescent Assay Kit (BPS Bioscience, San Diego) according to the manufacturer's protocol. Briefly, the ribosylation reaction was carried out with activated DNA in PARP assay buffer using test inhibitor, positive control, substrate control and blank reactions, for 1 hour at 25° C. Detection was by streptavidin-HRP with chemiluminescent substrate A and B read in a luminometer. NZebrafish (Danio rerio) were obtained from zebrafish Core facility of Taipei Medical University and maintained at 28° C. on a 14 h light/10 h dark cycle. Embryos were incubated at 28° C. and different developmental stages were determined as described (25). Wild-type embryos were treated with different concentrations of HU (0, 5, 10, 20, 50 mM) or COH29 (0, 10, 20, 50, 100 μM) at 20 hpf to evaluate the mutagenic effect. Fifteen embryos were treated per well condition. […] Embryos were observed using an Olympus IX70-FLA inverted fluorescence microscope. Images were taken using SPOT digital camera system (Diagnostic Instruments, Sterling Heights, Mich., USA) and assembled with Image) software (26).
To assess the genotoxicity of COH29, wild-type zebrafish embryos were treated from 1 to 7 dpf (day post-fertilization) with a range of doses of COH29 (0-100 μM) and compared to embryos similarly treated with HU (0-50 mM) which is known to cause developmental defects.

OVCAR-4 = assay: Cytotoxicity assay, OVCAR-4; type: cell-based, human; details: read-out: IC50, mean ± SEM
Method: (§1) The MTT cytotoxicity assay was performed by incubating with MTT and monitoring the MTT formazan formed by viable cells with a microplate reader at a wavelength of 560 nm; the survival ratio was determined using the formula: (Atest−Ablank)/(Acontrol−Ablank)×100%. The cytotoxicity was determined in 96-well plates using the semiautomatic fluorescence-based Digital Imaging Microscopy System (DIMSCAN). DIMSCAN uses digital imaging microscopy to quantify viable cells, which selectively accumulate FDA (fluorescein diacetate; Alfa Aesar, Ward Hill, Mass.). DIMSCAN is capable of measuring cytotoxicity over a 4 log dynamic range by quantifying total fluorescence per well (which is proportional to the number of viable cells) after elimination of the background fluorescence by digital thresholding and eosin Y (Mallinckrodt Baker, Center Valley, Pa.) quenching. Cells were seeded into 96-well plates in 100 μL of complete medium at 2,000 to 5,000 cells per well, depending on cell line growth rate. After overnight incubation, test compound was added to each well at various concentrations in 50 μL of culture medium. […] Total fluorescence per well was then measured using DIMSCAN, and the results were expressed as the ratio of the fluorescence in treated wells to the fluorescence in untreated wells (survival fraction).

KB-7D = assay: Cytotoxicity assay, KB-7D; type: cell-based, human; details: cisplatin-resistant, read-out: IC50, mean ± SEM
Method: as §1

UWB1.289+BRCA1 = assay: Cytotoxicity assay, UWB1.289+BRCA1; type: cell-based, human; details: UWB1.289 + BRCA1 (WT), 72 h; read-out: IC50, mean ± SEM
Method: as §1

HCC1937+BRCA1 = assay: Cytotoxicity assay, HCC1937+BRCA1; type: cell-based, human; details: HCC1937 + BRCA1, triple negative, 72 h
Method: All cell lines were acquired from the American Type Culture Collection (Manassas, Va., USA). Cells were maintained in RPMI 1640 medium (Mediatech) with 10% fetal bovine serum, 2 mM glutamine, and 100 U of penicillin and 100 μg of streptomycin per ml of medium (Sigma) at 37° C. in 5% CO2. To isolate HCC1937+BRCA1 cells, parental HCC1937 cells were transfected with pcDNA3.1 plasmid expressing full-length BRCA1 cDNA. Stable transfectant clones were selected and used for drug sensitivity assays. For stable transfection, cells at 30-40% confluence were incubated overnight with […] of plasmid DNA, using FUGENE® 6 transfectin reagent (Roche Molecular Biochemical, Monza, Italy) according to the manufacturer's instructions. Cells were then selected in puromycin (1 μg/ml) (Invitrogen Life Technologies, La Jolla, Calif., USA). After 20 to 30 days, viable puromycin-resistant colonies from HCC1937 transfections were expanded and screened. The clones that stably expressed puromycin and retained growth potential were assayed for BRCA1 expression by Western blot analysis. The restoration of BRCA1 expression in the puromycin-resistant cDNA/transfectant cells was evaluated by Western blot analysis.
The MTT cytotoxicity assay was performed by incubating with MTT and monitoring the MTT formazan formed by viable cells with a microplate reader at a wavelength of 560 nm; the survival ratio was determined using the formula: (Atest−Ablank)/(Acontrol−Ablank)×100%. The cytotoxicity was determined in 96-well plates using the semiautomatic fluorescence-based Digital Imaging Microscopy System (DIMSCAN). DIMSCAN uses digital imaging microscopy to quantify viable cells, which selectively accumulate FDA (fluorescein diacetate; Alfa Aesar, Ward Hill, Mass.). DIMSCAN is capable of measuring cytotoxicity over a 4 log dynamic range by quantifying total fluorescence per well (which is proportional to the number of viable cells) after elimination of the background fluorescence by digital thresholding and eosin Y (Mallinckrodt Baker, Center Valley, Pa.) quenching. […]

TOV112D = assay: Cytotoxicity assay, TOV112D; type: cell-based, human; details: read-out: IC50, mean ± SEM
Method: as §1

SKBR3 = assay: Cytotoxicity assay, SKBR3; type: cell-based, human; details: SKBR3, ER− PR(−) HER2+
Method: as §1

OV90 = assay: MTT cytotoxicity assay, OV90; type: cell-based, human; details: OV90, wild-type BRCA1, 72 h; read-out: IC50, mean ± SEM
Method: as §1

KB-Gem = assay: Cytotoxicity assay, KB-Gem; type: cell-based, human; details: gemcitabine-resistant, read-out: IC50, mean ± SEM
Method: as §1

HCC1937 = assay: Cytotoxicity assay, HCC1937; type: cell-based, human; details: HCC1937, BRCA1 mutant, triple negative, 72 h
Method: All cell lines were acquired from the American Type Culture Collection (Manassas, Va., USA). Cells were maintained in RPMI 1640 medium (Mediatech) with 10% fetal bovine serum, 2 mM glutamine, and 100 U of penicillin and 100 μg of streptomycin per ml of medium (Sigma) at 37° C. in 5% CO2. To isolate HCC1937+BRCA1 cells, parental HCC1937 cells were transfected with pcDNA3.1 plasmid expressing full-length BRCA1 cDNA. Stable transfectant clones were selected and used for drug sensitivity assays. […] The restoration of BRCA1 expression in the puromycin-resistant cDNA/transfectant cells was evaluated by Western blot analysis.
The MTT cytotoxicity assay was performed by incubating with MTT and monitoring the MTT formazan formed by viable cells with a microplate reader at a wavelength of 560 nm; the survival ratio was determined using the formula: (Atest−Ablank)/(Acontrol−Ablank)×100%. The cytotoxicity was determined in 96-well plates using the semiautomatic fluorescence-based Digital Imaging Microscopy System (DIMSCAN). DIMSCAN uses digital imaging microscopy to quantify viable cells, which selectively accumulate FDA (fluorescein diacetate; Alfa Aesar, Ward Hill, Mass.). […] Total fluorescence per well was then measured using DIMSCAN, and the results were expressed as the ratio of the fluorescence in treated wells to the fluorescence in untreated wells (survival fraction).

A2780-DDDP = assay: Cytotoxicity assay, A2780-DDDP; type: cell-based, human; details: cisplatin-resistant, read-out: IC50, mean ± SEM
Method: as §1

UWB1.289 = assay: MTT cytotoxicity assay, UWB1.289; type: cell-based, human; details: UWB1.289, BRCA1-defective, 72 h; read-out: IC50, mean ± SEM
Method: as §1

OVCAR-3 = assay: Cytotoxicity assay, OVCAR-3; type: cell-based, human; details: read-out: IC50, mean ± SEM
Method: as §1

PARP1 = PARP1 protein expression by Western blot; type: cell-based, human; details: HCC1937 cells irrespective of BRCA1 status, 4 h
Method: FIGS. 3A-3B. […] (FIG. 3A): the effect of COH29 on PARP1 activity in isogenic pairs of breast (HCC1937) and ovarian (UWB1.289) cancer cell lines expressing mutant or wt BRCA1 (wt=+BRCA1 in each case) was assessed in duplicate using procedures described in Materials & Methods; FIG. 3B: the effect of COH29 on PARP1 protein expression in the isogenic HCC1937/HCC1937+BRCA1 cell lines was assessed by Western blot analysis using anti-human PARP1 antibody as the primary antibody. Loading control is β-actin.
For subcellular fractionation, cells were trypsinized and washed with cold PBS solution twice. […] Following centrifugation at 1,000 g for 5 min, the supernatant was collected (i.e., cytoplasmic fraction) and pellets were washed with the same buffer twice. The washed samples were extracted for 40 min on ice with fractionation buffer containing 0.5% NP-40 for nuclear fraction. All the samples were sonicated and clarified by centrifugation at 16,000 g for 15 min. Protein concentrations of all fractions were determined with Bio-Rad Protein Assay (Bio-Rad Laboratories, Hercules, Calif.). Immunoblotting was performed as described previously (21,22). Briefly, equal amounts of boiled protein samples were subjected to SDS-polyacrylamide gel electrophoresis (PAGE) and transferred onto nitrocellulose membranes (Bio-Rad Laboratories). Membranes were blocked for 1 hour in 3% BSA in Tris buffered saline containing 0.05% Tween 20 (TBST) and incubated for 1 hour with primary antibody (1:500 or 1:1000) diluted in TBST containing 1% BSA. After two washes with TBST, membranes were incubated for 1 hour with horseradish peroxidase-conjugated secondary Abs (1:3000 dilution) at room temperature. The immunoblots were visualized on film with the West-Q chemi-luminescence kit (GenDEPOT, Barker, Tex.).

## NC(=O)NO [HU, hydroxyurea, reference compound]
[1]
  number of mutant embryos: dose-dependent increase
[1]; embryos treated 1 to 7 dpf, COH29 0-100 μM
  developmental defects: caused defects in eyes and heart by 4 dpf

## N.N.[Cl][Pt][Cl] [Cisplatin]
OVCAR-4
  IC50: 2250 ± 250 nM
KB-7D
  IC50: 7500 ± 300 nM
UWB1.289+BRCA1
  IC50: 7400 ± 2020 nM
HCC1937+BRCA1
  IC50: 2930 ± 550 nM
TOV112D
  IC50: 1320 ± 200 nM
SKBR3
  IC50: 990 ± 240 nM
OV90
  IC50: 1570 ± 290 nM
KB-Gem
  IC50: 380 ± 30 nM
HCC1937
  IC50: 2460 ± 110 nM
A2780-DDDP
  IC50: 5020 ± 1180 nM
UWB1.289
  IC50: 1430 ± 870 nM
OVCAR-3
  IC50: 1640 ± 40 nM

## C[C@]1(c2nc3c(C(N)=O)cccc3[nH]2)CCCN1 [ABT-888, reference compound]
PARP1
  PARP1 protein level: significant reduction
